The text below walks through data of patent US20110130355A1, “USE OF SOPHORICOSIDE IN THE MANUFACTURE OF MEDICAMENTS” (priority 2008, published 2011).

Marks after values point to notes of the source that are not given here.

Experiment [1] relates to croton oil-induced ear edema. The following applies: in vivo; cited from earlier work.
The test system of another experiment is articular chondrocytes. The experiment can be described thus: Apoptotic profiles of articular chondrocytes (TUNEL staining). The format is in vivo, SD rats. The following applies: OVX rats, 11 weeks; for apoptotic cells in articular cartilage, in words: FIG. 10; for Apoptotic index of the articular chondrocytes, total: whole knee joint. From the text:
When a cell is undergoing apoptosis, the chromosomal DNAs are fragmented in a gradual and staged manner. The chromosomal DNAs are firstly degraded into large fragments of 50-300 kb by endogenous nucleases. Next, about 30% of the chromosomal DNAs were randomly cleaved at internucleosomal regions by the Ca^2+ and Mg^2+ dependent endonucleases to form multimers of 180˜200 bp nucleosomal DNAs. The free 3′-ends resulted from DNA double-strand break or DNA single chain gapping can be labeled by adding a derivative formed by the deoxyribonucleotide and fluorescein, peroxidase, alkaline phosphatase by the terminal deoxynucleotidyl transferase. The apoptotic cells can be detected accordingly. Such methods are generally referred to as terminal deoxynucleotidyl transferase-mediated nick end labeling.
1) Section Dewaxing: The sections were placed in an incubator at 65° C. for 3 hours, and then immersed in xylene for 5 minutes×2, in 100% ethanol for 10 min×2, in 95% ethanol for 5 min×2, in 85% ethanol for 5 minutes, in 75% ethanol for 5 minutes, and in PBS for 5 minutes×2;
2) Pre-treatment: Each of the sections was incubated with 60 μl fresh protease K (20 μg/ml) in a humidified chamber at 37° C. for 20 minutes; and then rinsed with PBS for 2 minutes×2;
3) Elimination of endogenous peroxidases: The sections were treated with 3% H2O2-methanol for 5 minutes and washed by PBS for 5 minutes×2;
4) Equilibration: Each of the sections was rinsed with 75 μl equilibration solution for 10 seconds and decanted, and the residual water was sucked off;
5) Addition of TdT enzyme: […] working solution was added to each of the sections immediately with the […] control untreated, and the sections were placed in a humidified chamber at 37° C. for 1 hour;
6) Quenching: The sections were gently shook in the quenching solution for 15 minutes, and washed by PBS for 3 minutes×3, and decanted gently;
7) Visualization: Each of the sections was incubated with 65 μl antidigoxin-perioxidase in a humidified chamber at room temperature for 30 minutes, and washed by PBS for 2 minutes×4. After incubation with sufficient amount of the perioxidase substrate (75 μl) for 3˜6 minutes, each of the sections was visualized by microscopy;
8) Counterstaining: The sections were rinsed with flowing water for 3 minutes, and subsequently stained by hematoxylin for 10 seconds, then rinsed with flowing water for 10 minutes, immersed in 95% ethanol for 10 minutes×2, immersed in 100% ethanol for 10 minutes×2; placed in xylene for 10 minutes×2; and finally mounted in neutral resin.
The average of the indices for the four regions was regarded as the total apoptotic index for the indicated knee joint, and the average of the indices obtained from two persons was regarded as the final experimental result.
The apoptotic index=number of positive cells in the field/total number of chondrocytes in the field×100%.

Another experiment concerns CTX-II. In words: Determination of the urinary CTX-II content (competitive ELISA, creatinine corrected). It is filed as in vivo, SD rats. The following applies: OVX rats, urine at 3, 5, 7 weeks, FIG. 2, vs. model group. How it is done:
Urine samples (1˜1.5 ml) were collected in eppendorf tubes from the rats before modeling and at 3 weeks, 5 weeks and 7 weeks by using metabolic cages, and stored at −20° C.
1. The concentrations of CTX-II in the urine samples obtained in accordance with example 1 were determined by the Urine Pre-clinical (PC) Cartilaps ELISA kit and the competitive enzyme linked immunosorbent assay (ELISA). The concentration of creatinine (referred to as “Crea” hereinafter) in the urine samples were determined by the multifunctional biochemistry analyzer (Beckman coulter, DXC800). The CTX-II contents were corrected by the following formula:
Corrected CTX-II ([…])=CTX-II (μg/L)/Crea (mmol/L) […]
12) The optical densities (ODs) were determined by a microplate reader (Molecular Devices Corporation, BD03315) at 450 nm and 650 nm, and a 4-parameter logistic regression curve was thereby obtained, so as to read the concentration of each sample.
4. Determination of Crea in the urine samples (mmol/L): The Crea concentration is determined by using a multiple biochemistry analyzer (Beckman coulter, DXC800) by the Lab Department of Shanghai Ruij in Hospital.
The CTX-II baseline ratios were calculated as the above formula, and the results were shown in FIG. 2, wherein ** indicates p<0.01 vs. the model group at the same time point, and * indicates p<0.05 vs. the model group at the same time point.
A general note: An ELISA detects its analyte on a solid surface through an enzyme-linked reagent.

As for `O=c1c(-c2ccc(O[C@@H]3O[C@H](CO)[C@@H](O)[C@H](O)[C@H]3O)cc2)coc2cc(O)cc(O)c12` [HDA, 3-[4-(β-D-glucopyranosyl)-benzyl]5,7-dihydro-4H-1-benzopyran-4-one (4′,5,7-trihydroxylisoflavone-4′-D-glucoside)], in experiment [1], the “croton oil-induced ear edema” value is “inhibit”. For the same compound, in the experiment on articular chondrocytes (sophoricoside 20 mg/kg/day), the “apoptotic cells in articular cartilage, in words” value (shortened to “apoptotic cells”) was “The interventions other than HAD20 decreased the apoptotic chondrocytes”; the “Apoptotic index of the articular chondrocytes, lateral femur” value (shortened to “Apoptotic index … lateral femur”) is listed as 10.269 ± 1.313^□ %; the “Apoptotic index of the articular chondrocytes, lateral tibia” value (shortened to “Apoptotic index … lateral tibia”) was 12.571 ± 1.226^□□ %; the “Apoptotic index of the articular chondrocytes, medial femur” value (shortened to “Apoptotic index … medial femur”) is given as 14.779 ± 1.819^□□ %. Moreover, in the experiment on articular chondrocytes (sophoricoside 20 mg/kg/day), the “Apoptotic index of the articular chondrocytes, medial tibia” value (from here on “Apoptotic index … medial tibia”) is given as 13.125 ± 1.891^□□ % and the “Apoptotic index of the articular chondrocytes, total” value (“Apoptotic index … total” for short) is 12.711 ± 1.178^□□ %. In the experiment on articular chondrocytes (sophoricoside 40 mg/kg/day), the “apoptotic cells” value is recorded as “weaker”; the “Apoptotic index … lateral femur” value came to 7.991 ± 0.943%; the “Apoptotic index … lateral tibia” value was 7.665 ± 0.976**^□ %; the “Apoptotic index … medial femur” value is reported as 10.779 ± 1.159%. For the same compound, in the experiment on articular chondrocytes (sophoricoside 40 mg/kg/day), the “Apoptotic index … medial tibia” value is given as 9.581 ± 0.760*^□ % and the “Apoptotic index … total” value is listed as 9.004 ± 0.588**^□ %. In the experiment with articular chondrocytes (sophoricoside 80 mg/kg/day), the “apoptotic cells” value was “less than OVX group and similar to normal articular cartilage”; the “Apoptotic index … lateral femur” value worked out at 5.253 ± 0.923 %; the “Apoptotic index … lateral tibia” value is given as 5.509 ± 0.847 %; the “Apoptotic index … medial femur” value is 7.410 ± 0.872 %. Further, in the experiment with articular chondrocytes (sophoricoside 80 mg/kg/day), the “Apoptotic index … medial tibia” value is 6.558 ± 1.121 % and the “Apoptotic index … total” value is 6.183 ± 0.738 %. Moreover, the “metabolic peak of urinary CTX-II (ratio to baseline) shortly after ovariectomy” value with CTX-II (sophoricoside 40 mg/kg/day) is reported as “also have this effect, but in a weaker manner”. In addition, in the experiment on CTX-II (sophoricoside 80 mg/kg/day), the “metabolic peak of urinary CTX-II (ratio to baseline) shortly after ovariectomy” value is “significantly suppress the metabolic peak of CTX-II shortly after ovariectomy”.
